Measured values from patent US7956047B2, “Use of chondroitin sulphate E (CS-E) for the treatment of diseases or conditions related to collagen fibril formation” (AnaMar AB, priority 2004, dated 2011).
“Also recorded” adds a separate entry of the source.

Key:
[1] = tested on: collagen monomers; conditions: literature / manuscript of the applicant's laboratory; cited from earlier work
[2] = tested on: collagen fibril formation (collagen monomers, collagen type I / collagen type II); test: In vitro collagen fibrillogenesis assay (turbidity / light scattering); assay type: biochemical, bovine; conditions: for effect on collagen fibril formation (CFF): purified free CS chains added to collagen monomers (330 nM), pH 7.4, FIG. 2 panel A
Protocol: Bovine pepsin-extracted collagen type I was purchased from Vitrogen. Collagen II was pepsin extracted from bovine tracheal cartilage, as previously described (Vogel, K. G., Paulsson, M., and Heinegård, D. (1984) Biochem. J. 223, 587-597). The fibrillogenesis assay has been previously described (Hedborn, E. and Heinegård, D. (1989) J. Biol. Chem. 264, 6898-6905).
Briefly, a solution of collagen monomers (330 nM) was brought to neutral pH by addition of an appropriate volume of 0.012M NaOH, and buffered by 20 mM HEPES, 150 mM NaCl at pH 7.4. Perlecan fragment was added at concentrations equimolar to that of collagen or at one tenth the molar concentration of collagen. The sample was mixed vigorously and briefly, and transferred to a cuvette. The sample was incubated at 37° C. (collagen type I) or 35° C. (collagen type II) in water-jacketed cuvettes in the spectrophotometer, and the absorbance due to light scattering at 400 nm (collagen type I) or 313 nm (collagen type II) was monitored over a duration of 5-18 hrs. The increased absorbance/turbidity depends on increasing fibre formation.
Fibrillogenesis was performed as described above. CS-E from squid was purchased from Calbiochem. 0.13 μg/ml corresponding to the molar concentration of GAG chains in previous experiments using recombinant perlecan domain I variants with HS/CS (PG IB) (33 nM).

Row | Molecule | effect on formation of collagen fibres from monomers in vitro [1] | concentration at which the stimulatory effect on fibril formation reaches saturation ([2]; FIG. 2 panel B) [µg/mL] | dose dependence of the stimulatory effect on collagen fibril formation ([2]; FIG. 2 panel B) | effect on collagen fibril formation (CFF) [2]
1 | cartilage oligomeric matrix protein [COMP] | accelerates the formation of fibres from monomers | – | – | –
2 | chondroitin sulphate E [CS-E] | – | 30 | dose-dependent | effective in collagen fibril formation; also recorded: positive result on collagen fibril formation; also recorded: dramatic effects on fibril formation
3 | chondroitin-6 sulphate [CS-6, reference compound] | – | – | – | none of the other CS variants had any significant effect; also recorded: none of the other tested chondroitin sulphate variants (CS-D and CS-6) gives a positive result; also recorded: neither CS-6 nor CS-D had any effect
4 | fibromodulin (protein, UniProt Q06828 19-376, looked up) Fibromodulin: QYEDDPHWWFHYLRSQQSTYYDPYDPYPYETYEPYPYGVDEGPAYTYGSPSPPDPRDCPQECDCPPNFPTAMYCDNRNLKYLPFVPSRMKYVYFQNNQITSIQEGVFDNATGLLWIALHGNQITSDKVGRKVFSKLRHLERLYLDHNNLTRMPGPLPRSLRELHLDHNQISRVPNNALEGLENLTALYLQHNEIQEVGSSMRGLRSLILLDLSYNHLRKVPDGLPSALEQLYMEHNNVYTVPDSYFRGAPKLLYVRLSHNSLTNNGLASNTFNSSSLLELDLSYNQLQKIPPVNTNLENLYLQGNRINEFSISSFCTVVDVVNFSKLQVLRLDGNEIKRSAMPADAPLCLRLASLIEI | slow down fibre formation in vitro | – | – | –
5 | decorin (protein, UniProt P07585 31-359, looked up) Decorin: DEASGIGPEVPDDRDFEPSLGPVCPFRCQCHLRVVQCSDLGLDKVPKDLPPDTTLLDLQNNKITEIKDGDFKNLKNLHALILVNNKISKVSPGAFTPLVKLERLYLSKNQLKELPEKMPKTLQELRAHENEITKVRKVTFNGLNQMIVIELGTNPLKSSGIENGAFQGMKKLSYIRIADTNITSIPQGLPPSLTELHLDGNKISRVDAASLKGLNNLAKLGLSFNSISAVDNGSLANTPHLRELHLDNNKLTRVPGGLAEHKYIQVVYLHNNNISVVGSSDFCPPGHNTKKASYSGVSLFSNPVQYWEIQPSTFRCVYVRSAIQLGNYK | slow down fibre formation in vitro | – | – | –
